This note sets out measurements from patent US4476299A, “Cyclic polyamino containing compounds having therapeutic effect and the preparation thereof” (priority 1981, dated 1984).

The test system of the assay is P-388 cells. As to the kind of experiment: Antineoplastic action against implanted P-388 tumor, CDF1 mice, i.p.-i.p. (T/C %). Type of assay: in vivo. The conditions noted are these: Mus musculus, read-out: T/C %, (Treatment/Control %). As for the experimental part: In this animal test, the antineoplastic action against the implanted tumor was examined, in lower animals in vivo, in repsect to the compounds according to the present invention, by using CDF1 mice.
To the peritoneal cavity of each group of mice consisting of six CDF1 mice per group, 10^6 /0.1 ml of P-388 cells or 10^5 /0.1 ml of L-1210 cells were implanted. […] While to the control groups of CDF1 mice, P-388 and L-1210 cells were implanted in the same manner and they were bred without administration of the compounds. […]

Where [1] appears, read: ip, Table 6, P388, dose 0.05 mg/kg, i.p.
Where [2] appears, read: ip, Table 6, P388, dose 0.5 mg/kg, i.p.
The mark [3] stands for this setting: ip, Table 6, P388, dose 2 mg/kg, i.p.

Like-named read-outs stand apart in the source and are kept apart here.

With `COc1ccc(CC2C(=O)NC(C)C(=O)N(C)C3Cc4ccc(cc4)Oc4cc(ccc4OC4CCCCC4)CC(C(=O)NC(C)C(=O)NC(C)C(=O)N2C)N(C)C3=O)cc1` (centres unmarked) [Ex. 16], for the setting “P388, ip”, the response vs control in vivo at 0.05 mg/kg was determined as 126%, the response vs control in vivo at 0.5 mg/kg stood at 162% and the response vs control in vivo at 2 mg/kg was determined as 164%.

As for `CCCCCCCOc1ccc2cc1Oc1ccc(cc1)CC1C(=O)N(C)C(C2)C(=O)NC(C)C(=O)NC(C)C(=O)N(C)C(Cc2ccc(OC)cc2)C(=O)NC(C)C(=O)N1C` (centres unmarked) [Ex. 8], under “P388, ip”, the response vs control in vivo at 0.05 mg/kg worked out at 116%, the response vs control in vivo at 0.5 mg/kg came out at 145%, the response vs control in vivo at 2 mg/kg is 150% and the response vs control in vivo at 4 mg/kg worked out at 164%.

With `CCCC(C)C(=O)Oc1ccc2cc1Oc1ccc(cc1)CC1C(=O)N(C)C(C2)C(=O)NC(C)C(=O)NC(C)C(=O)N(C)C(Cc2ccc(OC)cc2)C(=O)NC(C)C(=O)N1C` (centres unmarked) [Ex. 43], where the note is “P388, ip”, the response vs control in vivo at 0.05 mg/kg came out at 117%, the response vs control in vivo at 0.5 mg/kg came to 142% and the response vs control in vivo at 2 mg/kg worked out at 154%.

For the molecule `CCOC(=O)CCCOc1ccc2cc1Oc1ccc(cc1)CC1C(=O)N(C)C(C2)C(=O)NC(C)C(=O)NC(C)C(=O)N(C)C(Cc2ccc(OC)cc2)C(=O)NC(C)C(=O)N1C` (centres unmarked) [Ex. 19(2), ethoxycarbonylpropylether (2) of TPC-A], where the note is “P388, ip”, the response vs control in vivo at 0.05 mg/kg was determined as 114%, the response vs control in vivo at 0.5 mg/kg worked out at 140%, the response vs control in vivo at 2 mg/kg came out at 142% and the response vs control in vivo at 4 mg/kg stood at 153%.

As for `CCCCCCCCOc1ccc2cc1Oc1ccc(cc1)CC1C(=O)N(C)C(C2)C(=O)NC(C)C(=O)NC(C)C(=O)N(C)C(Cc2ccc(OC)cc2)C(=O)NC(C)C(=O)N1C` (centres unmarked) [Ex. 9], where the note is “P388, ip”, the response vs control in vivo at 0.05 mg/kg was found to be 136%, the response vs control in vivo at 0.5 mg/kg turned out to be 147%, the response vs control in vivo at 2 mg/kg was 163% and the response vs control in vivo at 4 mg/kg was 152%.

Regarding `CCOc1ccc2cc1Oc1ccc(cc1)CC1C(=O)N(C)C(C2)C(=O)NC(C)C(=O)NC(C)C(=O)N(C)C(Cc2ccc(OC)cc2)C(=O)NC(C)C(=O)N1C` (centres unmarked) [Ex. 3], where the note is “P388, ip”, the response vs control in vivo at 0.05 mg/kg was 137%, the response vs control in vivo at 0.5 mg/kg is 165% and the response vs control in vivo at 2 mg/kg worked out at 162%.

In the case of `COc1ccc(CC2C(=O)NC(C)C(=O)N(C)C3Cc4ccc(cc4)Oc4cc(ccc4OC(=O)c4ccccc4)CC(C(=O)NC(C)C(=O)NC(C)C(=O)N2C)N(C)C3=O)cc1` (centres unmarked) [Ex. 32], under “P388, ip”, the response vs control in vivo at 0.05 mg/kg was 128%, the response vs control in vivo at 0.5 mg/kg was found to be 186%, the response vs control in vivo at 2 mg/kg was 176% and the response vs control in vivo at 10 mg/kg is 183%.

As for `COc1ccc(CC2C(=O)NC(C)C(=O)N(C)C3Cc4ccc(cc4)Oc4cc(ccc4OC(C)C)CC(C(=O)NC(C)C(=O)NC(C)C(=O)N2C)N(C)C3=O)cc1` (centres unmarked) [Ex. 5], for the setting “P388, ip”, the response vs control in vivo at 0.05 mg/kg was determined as 142%, the response vs control in vivo at 0.5 mg/kg turned out to be 175% and the response vs control in vivo at 2 mg/kg worked out at 105%.

Take `CCC(=O)Oc1ccc2cc1Oc1ccc(cc1)CC1C(=O)N(C)C(C2)C(=O)NC(C)C(=O)NC(C)C(=O)N(C)C(Cc2ccc(OC)cc2)C(=O)NC(C)C(=O)N1C` (centres unmarked) [Ex. 23]: where the note is “P388, ip”, the response vs control in vivo at 0.05 mg/kg was determined as 129%, the response vs control in vivo at 0.5 mg/kg came out at 145%, the response vs control in vivo at 2 mg/kg stood at 164% and the response vs control in vivo at 10 mg/kg stood at 175%.

With `CCCCCCCCCOc1ccc2cc1Oc1ccc(cc1)CC1C(=O)N(C)C(C2)C(=O)NC(C)C(=O)NC(C)C(=O)N(C)C(Cc2ccc(OC)cc2)C(=O)NC(C)C(=O)N1C` (centres unmarked) [Ex. 10], the response vs control in vivo at 0.05 mg/kg under setting [1] stood at 112%. Further, the response vs control in vivo at 0.5 mg/kg under setting [2] came out at 142%. Under setting [3], the response vs control in vivo at 2 mg/kg worked out at 150%. Further, the response vs control in vivo at 4 mg/kg (ip, Table 6, P388, dose 4 mg/kg, i.p.) was determined as 155%.

With `CCCC=CC(=O)Oc1ccc2cc1Oc1ccc(cc1)CC1C(=O)N(C)C(C2)C(=O)NC(C)C(=O)NC(C)C(=O)N(C)C(Cc2ccc(OC)cc2)C(=O)NC(C)C(=O)N1C` (centres unmarked) [Ex. 44], where the note is “P388, ip”, the response vs control in vivo at 0.05 mg/kg stood at 117%, the response vs control in vivo at 0.5 mg/kg was determined as 150% and the response vs control in vivo at 2 mg/kg turned out to be 165%.

As for `COc1ccc(CC2C(=O)NC(C)C(=O)N(C)C3Cc4ccc(cc4)Oc4cc(ccc4OC(=O)C(C)C)CC(C(=O)NC(C)C(=O)NC(C)C(=O)N2C)N(C)C3=O)cc1` (centres unmarked) [Ex. 25], for the setting “P388, ip”, the response vs control in vivo at 0.05 mg/kg stood at 124%, the response vs control in vivo at 0.5 mg/kg amounted to 151%, the response vs control in vivo at 2 mg/kg came to 156% and the response vs control in vivo at 10 mg/kg came out at 184%.

Turning to `CCCCCCCC(=O)Oc1ccc2cc1Oc1ccc(cc1)CC1C(=O)N(C)C(C2)C(=O)NC(C)C(=O)NC(C)C(=O)N(C)C(Cc2ccc(OC)cc2)C(=O)NC(C)C(=O)N1C` (centres unmarked) [Ex. 29], where the note is “P388, ip”, the response vs control in vivo at 0.05 mg/kg turned out to be 127%, the response vs control in vivo at 0.5 mg/kg worked out at 147%, the response vs control in vivo at 2 mg/kg was 167% and the response vs control in vivo at 10 mg/kg is 169%.

`CC=CC(=O)Oc1ccc2cc1Oc1ccc(cc1)CC1C(=O)N(C)C(C2)C(=O)NC(C)C(=O)NC(C)C(=O)N(C)C(Cc2ccc(OC)cc2)C(=O)NC(C)C(=O)N1C` (centres unmarked) [Ex. 26]: for the setting “P388, ip”, the response vs control in vivo at 0.05 mg/kg turned out to be 124%, the response vs control in vivo at 0.5 mg/kg amounted to 148%, the response vs control in vivo at 2 mg/kg is 162% and the response vs control in vivo at 10 mg/kg was found to be 187%.

On to `CCCCCCC(=O)Oc1ccc2cc1Oc1ccc(cc1)CC1C(=O)N(C)C(C2)C(=O)NC(C)C(=O)NC(C)C(=O)N(C)C(Cc2ccc(OC)cc2)C(=O)NC(C)C(=O)N1C` (centres unmarked) [Ex. 28], for which, for the setting “P388, ip”, the response vs control in vivo at 0.05 mg/kg turned out to be 114%, the response vs control in vivo at 0.5 mg/kg turned out to be 144% and the response vs control in vivo at 2 mg/kg amounted to 150%.

Take `COc1ccc(CC2C(=O)NC(C)C(=O)N(C)C3Cc4ccc(cc4)Oc4cc(ccc4OC(=O)Cc4ccccc4)CC(C(=O)NC(C)C(=O)NC(C)C(=O)N2C)N(C)C3=O)cc1` (centres unmarked) [Ex. 41]: the response vs control in vivo at 0.05 mg/kg under setting [1] is 118%. The response vs control in vivo at 0.5 mg/kg under setting [2] is 147%. Besides, the response vs control in vivo at 2 mg/kg under setting [3] turned out to be 159%.

For the molecule `COc1ccc(CC2C(=O)NC(C)C(=O)N(C)C3Cc4ccc(cc4)Oc4cc(ccc4OC(=O)CCC(C)C)CC(C(=O)NC(C)C(=O)NC(C)C(=O)N2C)N(C)C3=O)cc1` (centres unmarked) [Ex. 40, 4-methyl valerate], for the setting “P388, ip”, the response vs control in vivo at 0.05 mg/kg worked out at 112%, the response vs control in vivo at 0.5 mg/kg was 134% and the response vs control in vivo at 2 mg/kg was 152%.

As to `CCCCCOc1ccc2cc1Oc1ccc(cc1)CC1C(=O)N(C)C(C2)C(=O)NC(C)C(=O)NC(C)C(=O)N(C)C(Cc2ccc(OC)cc2)C(=O)NC(C)C(=O)N1C` (centres unmarked) [Ex. 7], for the setting “P388, ip”, the response vs control in vivo at 0.05 mg/kg turned out to be 122%, the response vs control in vivo at 0.5 mg/kg was found to be 143% and the response vs control in vivo at 2 mg/kg was found to be 165%.

Consider `CCC=CCC(=O)Oc1ccc2cc1Oc1ccc(cc1)CC1C(=O)N(C)C(C2)C(=O)NC(C)C(=O)NC(C)C(=O)N(C)C(Cc2ccc(OC)cc2)C(=O)NC(C)C(=O)N1C` (centres unmarked) [Ex. 45], for which, under setting [1], the response vs control in vivo at 0.05 mg/kg stood at 122%. Further, the response vs control in vivo at 0.5 mg/kg under setting [2] was 145%. The response vs control in vivo at 2 mg/kg under setting [3] was 162%.

Turning to `CCCC(=O)Oc1ccc2cc1Oc1ccc(cc1)CC1C(=O)N(C)C(C2)C(=O)NC(C)C(=O)NC(C)C(=O)N(C)C(Cc2ccc(OC)cc2)C(=O)NC(C)C(=O)N1C` (centres unmarked) [Ex. 24], for the setting “P388, ip”, the response vs control in vivo at 0.05 mg/kg was determined as 125%, the response vs control in vivo at 0.5 mg/kg came out at 144%, the response vs control in vivo at 2 mg/kg amounted to 156% and the response vs control in vivo at 10 mg/kg was found to be 170%.

Consider `COc1ccc(CC2C(=O)NC(C)C(=O)N(C)C3Cc4ccc(cc4)Oc4cc(ccc4OC4CCCCO4)CC(C(=O)NC(C)C(=O)NC(C)C(=O)N2C)N(C)C3=O)cc1` (centres unmarked) [Ex. 20, tetrahydropyranylether of TPC-A], for which, where the note is “P388, ip”, the response vs control in vivo at 0.05 mg/kg stood at 138%, the response vs control in vivo at 0.5 mg/kg came out at 164% and the response vs control in vivo at 2 mg/kg was determined as 121%.

`CCC(C)CC(=O)Oc1ccc2cc1Oc1ccc(cc1)CC1C(=O)N(C)C(C2)C(=O)NC(C)C(=O)NC(C)C(=O)N(C)C(Cc2ccc(OC)cc2)C(=O)NC(C)C(=O)N1C` (centres unmarked) [Ex. 42]: under “P388, ip”, the response vs control in vivo at 0.05 mg/kg was 115%, the response vs control in vivo at 0.5 mg/kg worked out at 140% and the response vs control in vivo at 2 mg/kg is 159%.

With `CCCCC(=O)Oc1ccc2cc1Oc1ccc(cc1)CC1C(=O)N(C)C(C2)C(=O)NC(C)C(=O)NC(C)C(=O)N(C)C(Cc2ccc(OC)cc2)C(=O)NC(C)C(=O)N1C` (centres unmarked) [Ex. 27], under “P388, ip”, the response vs control in vivo at 0.05 mg/kg is 118%, the response vs control in vivo at 0.5 mg/kg is 150%, the response vs control in vivo at 2 mg/kg was determined as 158% and the response vs control in vivo at 10 mg/kg was 172%.
